From PubChem BioAssay AID330 (DTP/NCI, 2004)
“And” between values parts separate entries of the source, which are not always exact repeats. Equal entries are not always repeated. Toxic doses and inconclusive results are not listed. Rule for the calls: active = survival T/C of 150% or more; inactive = T/C below 125% in these data.

Test system: P388 leukemia ip, CD2F1 mice, survival T/C
Experiment: NCI In Vivo Anticancer Drug Screen. Data for tumor model P388 Leukemia (intraperitoneal) in CD2F1 (CDF1) mice
Conditions: endpoint: median survival time, higher = longer survival
In short: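 Mice carrying the transplanted tumor received test compound or vehicle. Survival was recorded in each group, and the value is the treated-group measurement divided by that of the vehicle-treated control group.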

[1] = dose: 50.0 mg/kg/injection, schedule: Q01DX005 (ip), vehicle: saline with Tween-80
[2] = dose: 100.0 mg/kg/injection, schedule: Q01DX005 (ip), vehicle: saline with Tween-80
[3] = dose: 200.0 mg/kg/injection, schedule: Q01DX005 (ip), vehicle: saline with Tween-80
[4] = dose: 12.5 mg/kg/injection, schedule: Q01DX005 (ip), vehicle: Klucel (hydroxypropylcellulose) (HPC)
[5] = dose: 25.0 mg/kg/injection, schedule: Q01DX005 (ip), vehicle: Klucel (hydroxypropylcellulose) (HPC)
[6] = dose: 50.0 mg/kg/injection, schedule: Q01DX005 (ip), vehicle: Klucel (hydroxypropylcellulose) (HPC)
[7] = dose: 50.0 mg/kg/injection, schedule: Q01DX009 (ip), vehicle: saline with Tween-80
[8] = dose: 100.0 mg/kg/injection, schedule: Q01DX009 (ip), vehicle: saline with Tween-80
[9] = dose: 100.0 mg/kg/injection, schedule: Q01DX001 (ip), vehicle: saline with Tween-80
[10] = dose: 200.0 mg/kg/injection, schedule: Q01DX001 (ip), vehicle: saline with Tween-80

Measured: T/C

Cc1cc2nc3ccc(=[N+](C)C)cc-3sc2cc1N
inactive: dose: 25.0 mg/kg/injection, schedule: Q04DX003 (ip), vehicle: saline 100 % of control and 108 % of control | dose: 50.0 mg/kg/injection, schedule: Q04DX003 (ip), vehicle: saline 117 % of control and 91 % of control | dose: 100.0 mg/kg/injection, schedule: Q04DX003 (ip), vehicle: saline 109 % of control and 123 % of control

CCC[CH2][Sn]([CH2]CCC)([S]CC(=O)OCc1ccccc1)[S]CC(=O)OCc1ccccc1
inactive: dose: 12.5 mg/kg/injection, schedule: Q01DX001 (ip), vehicle: Klucel (hydroxypropylcellulose) (HPC) 108 % of control | dose: 25.0 mg/kg/injection, schedule: Q01DX001 (ip), vehicle: Klucel (hydroxypropylcellulose) (HPC) 116 % of control | dose: 50.0 mg/kg/injection, schedule: Q01DX001 (ip), vehicle: Klucel (hydroxypropylcellulose) (HPC) 108 % of control

CCCC[As](CCCC)SC1CCC2(C)C(=CCC3C4CCC(=O)C4(C)CCC32)C1 (stereo unspecified)
inactive: dose: 12.5 mg/kg/injection, schedule: Q01DX009 (ip), vehicle: distilled water + Tween-80 98 % of control | dose: 25.0 mg/kg/injection, schedule: Q01DX009 (ip), vehicle: distilled water + Tween-80 98 % of control | dose: 50.0 mg/kg/injection, schedule: Q01DX009 (ip), vehicle: distilled water + Tween-80 92 % of control | dose: 100.0 mg/kg/injection, schedule: Q01DX009 (ip), vehicle: distilled water + Tween-80 89 % of control | dose: 200.0 mg/kg/injection, schedule: Q01DX009 (ip), vehicle: distilled water + Tween-80 107 % of control

O=[N+]([O-])c1ccc(N=N/C(=N\Nc2ccccc2)c2nc3ccccc3[nH]2)c([N+](=O)[O-])c1
inactive: [1] 97 % of control | [2] 95 % of control | [3] 97 % of control

CN(C)CC/C=C1\c2ccccc2Sc2ccc(Cl)cc21
inactive: [4] 107 % of control and 112 % of control | [5] 117 % of control and 120 % of control | [6] 117 % of control

CCOc1c(N=Nc2ccc(Cl)cc2Cl)c(C)nn1C(N)=S
inactive: dose: 15.0 mg/kg/injection, schedule: Q01DX005 (ip), vehicle: Klucel (hydroxypropylcellulose) (HPC) 95 % of control | dose: 30.0 mg/kg/injection, schedule: Q01DX005 (ip), vehicle: Klucel (hydroxypropylcellulose) (HPC) 90 % of control

CCCCN(CCCC)CNC(=O)c1ccccc1
inactive: [1] 97 % of control | [2] 100 % of control

CN1CCCc2c1n(-c1ccccc1)c(=O)n(-c1ccccc1)c2=O
inactive: [6] 100 % of control | dose: 100.0 mg/kg/injection, schedule: Q01DX005 (ip), vehicle: Klucel (hydroxypropylcellulose) (HPC) 101 % of control | dose: 200.0 mg/kg/injection, schedule: Q01DX005 (ip), vehicle: Klucel (hydroxypropylcellulose) (HPC) 99 % of control

O=C1CCCc2c1cc(C1CCCC1)c1ccccc21
inactive: dose: 60.0 mg/kg/injection, schedule: Q01DX005 (ip), vehicle: Klucel (hydroxypropylcellulose) (HPC) 104 % of control | dose: 120.0 mg/kg/injection, schedule: Q01DX005 (ip), vehicle: Klucel (hydroxypropylcellulose) (HPC) 94 % of control | dose: 240.0 mg/kg/injection, schedule: Q01DX005 (ip), vehicle: Klucel (hydroxypropylcellulose) (HPC) 101 % of control

C/C(=N\Nc1ccc2ccccc2n1)c1ccccn1
inactive: [4] 107 % of control | [5] 106 % of control | [6] 114 % of control and 116 % of control

CCCCCCCCC(=O)Nc1ncc([N+](=O)[O-])s1
inactive: dose: 50.0 mg/kg/injection, schedule: Q01DX009 (ip), vehicle: Klucel (hydroxypropylcellulose) (HPC) 113 % of control | dose: 100.0 mg/kg/injection, schedule: Q01DX009 (ip), vehicle: Klucel (hydroxypropylcellulose) (HPC) 115 % of control | dose: 200.0 mg/kg/injection, schedule: Q01DX009 (ip), vehicle: Klucel (hydroxypropylcellulose) (HPC) 100 % of control

CCCOC(=O)Nc1ccc2nc(N(C)C)sc2c1
inactive: dose: 50.0 mg/kg/injection, schedule: Q01DX009 (ip), vehicle: suspension in saline 99 % of control | dose: 100.0 mg/kg/injection, schedule: Q01DX009 (ip), vehicle: suspension in saline 97 % of control | dose: 200.0 mg/kg/injection, schedule: Q01DX009 (ip), vehicle: suspension in saline 102 % of control

CN(C)c1ccc(/C=C/c2cc[n+](C)cc2)cc1
inactive: dose: 2.0 mg/kg/injection, schedule: Q01DX009 (ip), vehicle: saline with Tween-80 110 % of control | dose: 2.0 mg/kg/injection, schedule: Q04DX003 (ip), vehicle: saline with Tween-80 91 % of control | dose: 4.0 mg/kg/injection, schedule: Q01DX009 (ip), vehicle: saline with Tween-80 100 % of control | dose: 4.0 mg/kg/injection, schedule: Q04DX003 (ip), vehicle: saline with Tween-80 100 % of control | dose: 8.0 mg/kg/injection, schedule: Q01DX009 (ip), vehicle: saline with Tween-80 100 % of control | dose: 8.0 mg/kg/injection, schedule: Q04DX003 (ip), vehicle: saline with Tween-80 108 % of control

CN(C)S(=O)(=O)Nc1cccc(Br)c1
inactive: [7] 103 % of control | [8] 102 % of control | dose: 200.0 mg/kg/injection, schedule: Q01DX009 (ip), vehicle: saline with Tween-80 106 % of control

CCc1nn(CCCN2CCN(c3cccc(Cl)c3)CC2)c(=O)n1CC
inactive: dose: 50.0 mg/kg/injection, schedule: Q01DX009 (ip), vehicle: saline 114 % of control | dose: 100.0 mg/kg/injection, schedule: Q01DX009 (ip), vehicle: saline 116 % of control

CCOC(=O)c1nc(C)[nH]c(=O)c1C
inactive: dose: 8.0 mg/kg/injection, schedule: Q01DX009 (ip), vehicle: water 100 % of control | dose: 16.0 mg/kg/injection, schedule: Q01DX009 (ip), vehicle: water 95 % of control | dose: 32.0 mg/kg/injection, schedule: Q01DX009 (ip), vehicle: water 100 % of control | dose: 64.0 mg/kg/injection, schedule: Q01DX009 (ip), vehicle: water 100 % of control | dose: 128.0 mg/kg/injection, schedule: Q01DX009 (ip), vehicle: water 98 % of control

CCN(CC)Cc1cc(N=Nc2ccc(N(C)C)cc2)ccc1O
inactive: [9] 88 % of control | [10] 88 % of control

CCC12CCC(=O)C=C1CCCC2=O (stereo unspecified)
inactive: dose: 25.0 mg/kg/injection, schedule: Q01DX009 (ip), vehicle: saline sonified 104 % of control | dose: 50.0 mg/kg/injection, schedule: Q01DX009 (ip), vehicle: saline sonified 86 % of control | dose: 100.0 mg/kg/injection, schedule: Q01DX009 (ip), vehicle: saline sonified 109 % of control

CC(C)(O)C1COC2=C1C(=O)c1ccccc1C2=O (stereo unspecified)
inactive: dose: 50.0 mg/kg/injection, schedule: Q01DX009 (ip), vehicle: other 94 % of control | dose: 100.0 mg/kg/injection, schedule: Q01DX009 (ip), vehicle: other 107 % of control

O=C/C(Cl)=C(/Cl)C(=O)O
inactive: dose: 2.5 mg/kg/injection, schedule: Q01DX009 (ip), vehicle: saline with Tween-80 110 % of control and 123 % of control | dose: 5.0 mg/kg/injection, schedule: Q01DX009 (ip), vehicle: saline with Tween-80 117 % of control and 121 % of control | dose: 10.0 mg/kg/injection, schedule: Q01DX009 (ip), vehicle: saline with Tween-80 120 % of control and 121 % of control

Cc1ccc(S(=O)(=O)CC(=O)CC(=O)C(C#N)c2cccc(Cl)c2)cc1 (stereo unspecified)
inactive: [1] 100 % of control | [2] 99 % of control | [3] 107 % of control

COCc1c(-c2ccccc2)nn(O)c1-c1ccccc1
inactive: dose: 50.0 mg/kg/injection, schedule: Q01DX001 (ip), vehicle: saline with Tween-80 103 % of control | [9] 96 % of control | [10] 87 % of control

Cc1c(C)c(C)c2c(c1C)C(=O)c1c3c(c4c(c1C2=O)CCCC4)CCCC3
inactive: dose: 25.0 mg/kg/injection, schedule: Q01DX009 (ip), vehicle: saline with Tween-80 108 % of control | [7] 103 % of control | [8] 99 % of control
